{
  "source": "ChEMBL document CHEMBL1681705",
  "about": "“Optimisation of ITK inhibitors through successive iterative design cycles” (Bioorg Med Chem Lett, 2011)",
  "key": {"[1]": {"biological_target": "T1, Tyrosine-protein kinase ITK/TSK (Homo sapiens, UniProt Q08881)", "T1 sequence (Q08881 whole entry)": "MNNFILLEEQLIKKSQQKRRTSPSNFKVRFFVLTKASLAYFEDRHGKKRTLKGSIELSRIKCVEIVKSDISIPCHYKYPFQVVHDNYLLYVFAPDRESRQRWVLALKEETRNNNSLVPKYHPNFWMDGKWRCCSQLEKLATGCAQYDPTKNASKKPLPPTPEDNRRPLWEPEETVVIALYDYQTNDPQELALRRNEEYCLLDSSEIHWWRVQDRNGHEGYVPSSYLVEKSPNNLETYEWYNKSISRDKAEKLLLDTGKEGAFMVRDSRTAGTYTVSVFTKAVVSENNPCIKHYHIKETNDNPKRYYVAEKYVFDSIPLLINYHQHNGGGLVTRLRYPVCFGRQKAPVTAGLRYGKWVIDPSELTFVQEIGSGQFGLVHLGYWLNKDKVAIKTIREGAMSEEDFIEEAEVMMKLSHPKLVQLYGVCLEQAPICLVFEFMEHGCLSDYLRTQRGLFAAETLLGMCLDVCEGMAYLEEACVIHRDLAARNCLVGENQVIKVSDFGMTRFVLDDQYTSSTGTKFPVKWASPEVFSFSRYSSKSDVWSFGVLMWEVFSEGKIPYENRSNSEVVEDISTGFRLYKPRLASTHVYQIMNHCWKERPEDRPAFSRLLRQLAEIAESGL", "assay": "Inhibition of recombinant GST-tagged full-length ITK expressed in baculovirus expression system after 30 mins by scintillation proximity assay"}, "[2]": {"biological_target": "T2, Serine/threonine-protein kinase TBK1 (Homo sapiens) (UniProt Q9UHD2)", "T2 sequence (whole entry)": "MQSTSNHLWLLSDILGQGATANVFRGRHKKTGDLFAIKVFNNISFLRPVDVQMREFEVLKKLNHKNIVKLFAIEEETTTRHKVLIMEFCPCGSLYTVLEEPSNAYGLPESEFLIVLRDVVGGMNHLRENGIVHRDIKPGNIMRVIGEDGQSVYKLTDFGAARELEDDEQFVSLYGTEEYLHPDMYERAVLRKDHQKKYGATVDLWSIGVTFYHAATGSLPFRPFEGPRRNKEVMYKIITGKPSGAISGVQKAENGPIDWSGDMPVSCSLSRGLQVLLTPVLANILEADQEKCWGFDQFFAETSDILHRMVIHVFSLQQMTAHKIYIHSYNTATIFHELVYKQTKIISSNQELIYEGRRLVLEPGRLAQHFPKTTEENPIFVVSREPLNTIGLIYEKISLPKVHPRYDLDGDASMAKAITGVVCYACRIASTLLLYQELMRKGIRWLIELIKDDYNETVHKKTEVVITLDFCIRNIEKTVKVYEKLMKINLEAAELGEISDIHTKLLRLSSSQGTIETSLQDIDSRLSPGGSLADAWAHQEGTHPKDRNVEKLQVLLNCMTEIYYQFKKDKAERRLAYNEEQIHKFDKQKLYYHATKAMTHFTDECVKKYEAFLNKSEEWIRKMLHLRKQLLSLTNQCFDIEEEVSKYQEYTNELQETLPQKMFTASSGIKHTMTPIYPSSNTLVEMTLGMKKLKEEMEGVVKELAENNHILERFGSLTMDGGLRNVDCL", "assay": "Inhibition of TBK1 at 1 uM; values are per cent of control"}, "[3]": {"biological_target": "T3, Ephrin type-B receptor 2 (Homo sapiens) (UniProt P29323)", "T3 sequence (whole entry)": "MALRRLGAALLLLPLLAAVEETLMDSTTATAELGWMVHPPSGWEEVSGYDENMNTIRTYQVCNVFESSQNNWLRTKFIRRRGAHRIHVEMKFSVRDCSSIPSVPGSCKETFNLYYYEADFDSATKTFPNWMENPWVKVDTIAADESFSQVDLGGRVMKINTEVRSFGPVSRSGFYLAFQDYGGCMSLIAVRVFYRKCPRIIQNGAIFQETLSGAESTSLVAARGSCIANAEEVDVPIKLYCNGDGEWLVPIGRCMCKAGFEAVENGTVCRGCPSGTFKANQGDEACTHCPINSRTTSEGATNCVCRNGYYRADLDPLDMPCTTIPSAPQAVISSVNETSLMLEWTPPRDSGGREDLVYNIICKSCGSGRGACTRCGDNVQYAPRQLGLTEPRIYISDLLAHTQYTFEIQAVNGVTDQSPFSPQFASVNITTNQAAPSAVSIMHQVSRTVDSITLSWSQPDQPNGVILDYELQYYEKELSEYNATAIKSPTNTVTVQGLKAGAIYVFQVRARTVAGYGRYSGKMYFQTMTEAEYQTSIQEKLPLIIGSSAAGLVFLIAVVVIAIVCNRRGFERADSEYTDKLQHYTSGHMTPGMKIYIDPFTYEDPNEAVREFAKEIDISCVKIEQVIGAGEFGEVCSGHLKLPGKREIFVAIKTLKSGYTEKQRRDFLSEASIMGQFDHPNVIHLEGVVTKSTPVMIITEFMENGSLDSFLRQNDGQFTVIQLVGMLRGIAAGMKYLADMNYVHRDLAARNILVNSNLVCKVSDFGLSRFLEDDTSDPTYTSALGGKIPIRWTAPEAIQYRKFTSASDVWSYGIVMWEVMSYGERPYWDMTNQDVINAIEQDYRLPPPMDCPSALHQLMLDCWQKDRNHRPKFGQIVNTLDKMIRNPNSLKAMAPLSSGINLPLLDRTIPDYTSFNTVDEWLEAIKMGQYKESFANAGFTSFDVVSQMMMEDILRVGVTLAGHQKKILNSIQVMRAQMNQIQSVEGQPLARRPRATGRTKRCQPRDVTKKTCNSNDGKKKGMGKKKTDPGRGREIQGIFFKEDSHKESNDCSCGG", "assay": "Inhibition of EphB2 at 1 uM; values are per cent of control"}},
  "data": [
    {"smiles": "Cc1ccc2cc(-c3n[nH]c4ccc(NC5CCNC5)cc34)[nH]c2c1", "note": "(stereo unspecified)", "values": [
      {"measurement": "IC50", "setting": "[1]", "value": 11, "unit": "nM"},
      {"measurement": "residual activity", "setting": "[2]", "value": 2, "unit": "%"},
      {"measurement": "residual activity", "setting": "[3]", "value": 74, "unit": "%"}
    ]},
    {"smiles": "Cc1ccc2cc(-c3n[nH]c4ccc(NC5CCN(Cc6ccccc6)CC5)cc34)[nH]c2c1", "values": [
      {"measurement": "IC50", "setting": "[1]", "value": 23, "unit": "nM"},
      {"measurement": "residual activity", "setting": "[2]", "value": 9, "unit": "%"},
      {"measurement": "residual activity", "setting": "[3]", "value": 75, "unit": "%"}
    ]}
  ]
}
